Source: patent publication US20020091086A1, “Peptides that block viral infectivity and methods of use thereof” (priority 1999, published 2002)
Read-outs that look alike come from different tables or passages of the source. Marks after values point to notes of the source that are not given here. Peptide text beside a SMILES is read from it.

Tests used:
[1] = system: HIV-1; conditions: 100 μM, HUT78 cells
Description: In experiment 6 (Table 7 and FIG. 1), approximately 200,000 HUT78 cells were infected with HIV-1 at 25 TCID50 to test the inhibitory effect of GPG-NH2, RQG-NH2, KQG-NH2, ALG-NH2, GVG-NH2, VGG-NH2, ASG-NH2, SLG-NH2, and SPT-NH2. The HUT cells were resuspended in lml of RPMI 1640 medium supplemented with 10% (v/v) heat-inactivated fetal bovine serum (FBS, GIBCO), penicillin (100 u/ml), streptomycin (100 u/ml) and Polybrene (Sigma, 2 μg/ml) with or without the presence of the different small peptides (100 μM) mentioned above. Thereafter, the HIV-1 virus was added at 25 TCID50 in a volume of 20 μl. Cells were incubated with the virus at 37° C. for one hour and, subsequently, the cells were pelleted at 170×g for seven minutes. The cells were then washed three times in RPMI medium without peptides at room temperature by cell sedimentation at 170×g for seven minutes, as above. After the final wash, the cells were resuspended in RPMI culture medium containing the peptides in 24-well plate (Costar corporation) and were kept at 37° C. in 5% CO2 with humidity. Culture supernatants were collected when medium was changed at day 4, 7, and 11 post infection and viral p24 production was monitored by using an HIV-1 p24 ELISA kit (Abbott Laboratories, North Chicago, USA).

[2] = system: HIV-1; conditions: H9 cells; for Day 7 RT HIV-1 / Day 10 RT HIV-1: 100 μM; for HIV-1 infection, result in words: summary of Experiments 1-5
From the text: (§1) In this example, the methods that were used to analyze the ability of various tripeptides to inhibit HIV-1, HIV-2, and SIV replication are disclosed. In Experiments 1 and 2, approximately 200,000 H9 cells were infected with HIV-1, HIV-2 or SIV at 25 TCID50 to test the inhibitory effect of the following synthesized tripeptides LKA-NH2, ILK-NH2, GPQ-NH2, GHK-NH2, GKG-NH2, ACQ-NH2, CQG-NH2, ARV-NH2, KAR-NH2, HKA-NH2, GAT-NH2, KAL-NH2, and GPG-NH2. Accordingly, the H9 cells were resuspended with or without the different peptides (approximately 100 μM) in 1 ml of RPMI 1640 medium supplemented with 10% (v/v) heat-inactivated fetal bovine serum (FBS), penicillin (100 u/ml), and streptomycin (100 u/ml), all available through GIBCO, and Polybrene (2 μg/ml), available through Sigma. Thereafter, viruses were added at 25 TCID50 in a volume of 20-30μl. Cells were incubated with virus at 37° C. for 1 hr then pelleted at 170×g for 7 minutes. The cells were then washed three times in RPMI medium without peptides at room temperature and pelleted at 170×g for 7 minutes, as above. After the final wash, the cells were resuspended in RPMI culture medium containing the peptides in a 24-well plate (Costar corporation) and were kept at 37° C. in 5% CO2 with humidity.
(§2) Culture supernatants were collected and analyzed when the medium was changed at 4, 7, 10, and 14 days post infection. To monitor the replication of virus, reverse transcriptase (RT) activity in the supernatants was assayed using a commercially available Lenti-RT activity kit. (Cavidi Tech, Uppsala, Sweden). The amount of RT was determined with the aid of a regression line of standards. The results are presented as absorbance values (OD) and higher absorbance indicates a higher protein concentration and greater viral infection. Syncytium formation was also monitored by microscopic examination.
In Experiment 3, (Table 4), approximately 200,000 H9 cells were infected with HIV-1, HIV-2 or SIV at 25 TCID50 to test the inhibitory effect of different concentrations of peptides GPG-NH2, GKG-NH2 and CQG-NH2 and combinations of these peptides (the indicated concentration corresponds to the concentration of each tripeptide). As above, H9 cells were resuspended with or without the different peptides at varying concentrations in 1 ml of RPMI 1640 medium supplemented with 10% (v/v) heat-inactivated fetal bovine serum (FBS), penicillin (100 u/ml), and streptomycin (100 u/ml), and Polybrene (2 μg/ml). Thereafter, viruses were added at 25 TCID50 in a volume of 20-30 μl. Cells were incubated with the indicated virus at 37° C. for 1 hr then pelleted at 170×g for 7 minutes. The cells were then washed three times in RPMI medium without peptides at room temperature and pelleted at 170×g for 7 minutes, as above. After the final wash, the cells were resuspended in RPMI culture medium containing the peptides in a 24-well plate (Costar corporation) and kept at 37° C. in 5% CO2 with humidity.
Culture supernatants were collected when the medium was changed at 4, 7, and 11 days post infection. As above, the replication of each virus was monitored by detecting reverse transcriptase (RT) activity in the supernatants using the Lenti-RT activity kit. (Cavidi Tech). The amount of RT was determined with the aid of a regression line of standards. The results are presented as absorbance values (OD) and higher absorbance indicates a higher protein concentration and greater viral infection.
In Experiment 4, (Table 5) approximately 200,000 H9 cells were infected with HIV-1 at 25 TCID50 to test the inhibitory effect of different concentrations of peptides GPG-NH2, GKG-NH2 and CQG-NH2 and combinations of these peptides (the indicated concentration corresponds to the total concentration of tripeptide).

[3] = system: HIV-2; assay: HIV-2 infectivity assay in H9 cells, RT activity in supernatant; format: cell-based
[4] = system: SIV; assay: SIV infectivity assay in H9 cells, RT activity in supernatant; format: cell-based
[5] = system: HIV-1; conditions: H9 cells; for HIV-1 Syncytia: 100 μM; for HIV-1 syncytia formation, result in words: summary of Experiments 1-2
From the text: as §1, §2

Compound | p24 ([1]; Experiment 6, Day 7 HIV-1) [pg/mL] | reduction (%) ([1]; Experiment 6, Day 7 HIV-1) | HIV-1 infection, result in words ([1]; summary of Experiment 6) | Day 7 RT HIV-1 ([2]; Experiment 1) | Day 10 RT HIV-1 ([2]; Experiment 1) [OD] | Day 7 RT HIV-1 ([2]; Experiment 2) | Day 10 RT HIV-1 ([2]; Experiment 2) [OD] | HIV-1 infection, result in words [2] | Day 7 RT HIV-2 ([3]; Experiment 1, 100 μM) [OD] | Day 10 RT HIV-2 ([3]; Experiment 1, 100 μM) [OD] | Day 7 RT HIV-2 ([3]; Experiment 2, 100 μM) [OD] | Day 10 RT HIV-2 ([3]; Experiment 2, 100 μM) [OD] | Day 7 RT SIV ([4]; Experiment 1, 100 μM) [OD] | Day 10 RT SIV ([4]; Experiment 1, 100 μM) [OD] | Day 7 RT SIV ([4]; Experiment 2, 100 μM) [OD] | Day 10 RT SIV ([4]; Experiment 2, 100 μM) [OD] | HIV-1 Syncytia ([5]; Experiment 1) | HIV-1 Syncytia ([5]; Experiment 2) | HIV-1 syncytia formation, result in words [5]
CC(C)C[C@H](NC(=O)[C@H](C)N)C(=O)NCC(N)=O [ALG-NH2, alanyl-leucyl-glycine amide] (H-Ala-Leu-Gly-NH2) | 42 | ~100 | inhibited and/or prevented HIV-1 infection | – | – | – | – | – | – | – | – | – | – | – | – | – | – | – | –
Ala-Arg-Val [ARV-NH2] | – | – | – | 0.156 OD | 1.528 | 0.618 OD | 2.829 | failed to prevent infection | 3.380 | 3.003 | 2.237 | 2.628 | 0.210 | 1.172 | 0.212 | 3.004 | pos | pos | –
Ala-Cys-Gln [ACQ-NH2] | – | – | – | 0.117 OD | 0.904 | 0.606 OD | 2.831 | did not prevent HIV infection | 3.418 | 2.753 | 1.661 | 2.505 | 1.241 | 2.746 | 0.612 | 2.606 | pos | pos | –
Gly-Ala-Thr [GAT-NH2] | – | – | – | 0.116 OD | 1.565 | 0.776 OD | 2.800 | failed to prevent infection | 3.461 | 2.835 | 1.707 | 2.565 | 0.892 | 2.343 | 0.572 | 2.776 | pos | pos | failed to prevent infection and HIV-1 syncytia formation
Gly-His-Lys [GHK-NH2] | – | – | – | 0.289 OD | 2.151 | 0.829 OD | 3.013 | failed to prevent infection | 3.522 | 2.931 | 1.936 | 2.418 | 0.097 | 2.384 | 0.396 | 2.394 | pos | pos | failed to prevent infection and HIV-1 syncytia formation
Gly-Pro-Gln [GPQ-NH2] | – | – | – | 0.204 OD | 1.965 | 0.884 OD | 2.848 | did not prevent HIV infection | 3.692 | 2.734 | 1.511 | 2.382 | 1.542 | 2.176 | 0.574 | 2.319 | pos | pos | failed to prevent infection and HIV-1 syncytia formation
His-Lys-Ala [HKA-NH2] | – | – | – | 0.312 OD | 2.546 | 1.081 OD | 2.794 | did not prevent HIV infection | 3.408 | 2.669 | 1.678 | 2.560 | 0.416 | 2.520 | 0.455 | 2.623 | pos | pos | –
Iso-Leu-Lys [ILK-NH2] | – | – | – | 0.365 OD | 2.033 | 0.581 OD | 2.950 | – | 3.467 | 2.791 | 1.692 | 2.557 | 3.180 | 2.255 | 0.515 | 2.632 | pos | pos | –
Leu-Lys-Ala [LKA-NH2] | – | – | – | 0.568* OD | 2.429 | 0.894* OD | 2.989 | did not prevent HIV infection | 3.649 | 2.769 | 1.689 | 2.637 | 3.577 | 2.452 | 0.724 | 2.797 | pos | pos | –
Lys-Ala-Arg [KAR-NH2] | – | – | – | 0.380 OD | 2.779 | 0.753 OD | 2.928 | – | 3.419 | 2.640 | 1.904 | 2.742 | 0.266 | 1.722 | 1.034 | 2.672 | pos | pos | –
Lys-Ala-Leu [KAL-NH2] | – | – | – | 0.246 OD | 1.995 | 0.999 OD | 2.791 | failed to prevent infection | 3.372 | 2.749 | 1.757 | 2.383 | 1.091 | 2.524 | 0.511 | 2.663 | pos | pos | –
